From patent US20230107770A1, “METHOD OF ENHANCING IMMUNOTHERAPY USING ER STRESS PATHWAY INHIBITORS” (H. LEE MOFFITT CANCER CENTER AND RESEARCH INSTITUTE, INC., priority 2020, published 2023)

Experiments:
[1] = test system: B16 tumors; assay: s.c. B16 melanoma tumor model in mice; type: in vivo
[2] = Blood glucose and pancreatic islets in B16-bearing mice; type: in vivo; settings: B16-bearing mice treated for a week; GSK2606414 25 mg/kg or AMG-44 12 mg/kg; day 17
From the text: Hematoxylin and Eosin (H&E) stained slides were scanned in an Aperio AT2 whole slide scanner (Leica Biosystems Inc.) equipped with a 20×0.7NA objective lens Images were created at 0.5 micron per pixel resolution and imported into Definiens Tissue Studio software v4.7 (Definiens AG) for analysis. Islets were found using a semi-automated segmentation process. First an automatic segmentation was applied to the image to create contour lines around objects within the image. Objects that contained islets were classified as such and remaining objects were classified as non-islet tissue. Next, adjacent objects of the same classification were merged together to clean up the segmentation. Segmented images were analyzed to provide the total area of islets Immunofluorescence for mouse insulin in pancreas tissue sections was performed as we described (Sultan et al., 2017). Labeled samples were scanned with a Zeiss Imager Z2 Upright FL microscope with a 10× objective lens using the tile scan function. Images were created at a
0.65 micron per pixel resolution and imported into the Definiens Tissue Studio software v4.7 (Definiens AG) for islet detection and analysis. Islets were detected using a semi-automated segmentation process. First, an automatic segmentation was applied to the image to detect the tissue. Then, the software was trained to detect islet vs. non-islet tissue within the image. In order to remove false detected islets caused by background staining, detected islets larger than 150,000 square microns and less than 600 square microns were reclassified to non-islet tissue. Segmented images were then analyzed to provide the fluorescent intensity of islets and total tissue area.

[3] = test system: tumor-MDSC; assay: Ex vivo suppression assay: tumor-MDSC co-cultured with primed CFSE-labeled T cells; type: cell-based, mice
Experimental: CD3^+ T cells were enriched using mouse or human T cell negative selection kits (MagniSort, Invitrogen) from the spleen and lymph nodes of C57BL/6 mice; or from purchased human buffy-coat units (One-Blood, Tampa, Fla.). Purity ranged between 95% and 99% as tested by flow cytometry. For antigen-specific priming studies, CD8^+ T cells were enriched using negative selection kits from the spleens of OT-I mice previously activated with OVA257-264 (SIINFEKL) for 48 hours. Tumor-MDSC were isolated from cellular suspensions of digested tumors followed by positive selection (MojoSort Streptavidin Nanobeads, Biolegend) using anti-Gr1 (Clone RB6-8C5, eBioscience) or anti-CD11b-biotinylated antibodies (Clone M1/70, StemCell Technologies, Vancouver). Also, M-MDSC (CD11b^+Gr1^+Ly6G^lowLy6C^high), PMN-MDSC (CD11b^+Gr1^+Ly6G^+Ly6C^low), macrophages (CD11b^+Gr1^negF4/80^+CD11c^neg), and myeloid DCs (CD11b^+Gr1^negF4/80^negCD11c^+) were sorted from tumors in a FACSAriaII (BD Biosciences).
(§1) Murine BM-MDSC (ratio 1:1/8) or tumor-MDSC (ratio 1:1/4) were co-cultured with negatively selected CD3^+ T cells in a 96 well plate bound α-CD3 and α-CD28 (1 μg/ml each, eBioscience) for 3 days. T cell proliferation was assessed with Carboxyfluorescein succinimidyl ester (CFSE) or Cell-trace violet (Invitrogen) dye dilution detected by flow cytometry. For human studies, MDSC were co-cultured with enriched CD3^+ T cells activated with soluble α-CD3 (1 μg/ml, clone OKT3) and α-CD28 (0.5 μg/ml, clone L293) for 3 days in a 96 well plate bound with goat anti-mouse IgG (10 μg/ml). Results are expressed as percentage of proliferating T cells, determined by the dilution of fluorescence compared with non-stimulated T cells.

[4] = cited from earlier work
[5] = test system: CD8+ TILs; assay: Flow cytometry of tumor-infiltrating CD8+ T cells from treated mice; type: in vivo
Experimental: All analysis was performed using FlowJo version 11 software.

[6] = test system: murine BM-MDSC; assay: In vitro suppression assay with murine BM-MDSC; type: cell-based, mouse; settings: for potential of Thaps-treated Eif2ak3^KO-Tek BM-MDSC to impair T cell proliferation: 3 hours pre-treatment, Resveratrol 100 μM or D,L-Sulphoraphane 20 μM
Experimental: (§2) Mouse BM-MDSC were generated after culturing BM precursors with GM-CSF and G-CSF (20 ng/ml each) for 4 days. In vitro generated MDSC were treated with either LLC tumor explant supernatants (TES, since day 0) or Thaps (200 nM, for the last 24 hours of culture). Human BM-MDSC were developed after culturing BM or peripheral blood precursors from healthy donors with GM-CSF and IL-6 (10 ng/ml each) for a period of 6 days (Thevenot et al., 2014). To induce UPR activation, MDSC were treated with either supernatants from renal cell carcinoma cells 786-0 (hTES) for 6 days (Rodriguez et al., 2009) or Thaps during the last 24 hours before collection (200 nM). In some experiments, MDSC were pre-incubated for 3 hours with Resveratrol (100 μM, Sigma-Aldrich), D,L-Sulphoraphane (20 μM), AMG-44 (5 μM), or TUDCA (500 nM) before treating with Thaps.
as §1

[7] = test system: tumor-MDSC; settings: LLC-bearing mice treated with SFRN
Experimental: For surface staining, cells were labelled with the appropriate antibodies in the presence of Fc blocker. For intracellular staining, surface-labeled cells were fixed with Cytofix/Cytoperm™ Solution (BD Biosciences), washed in Perm/Wash™ 1× solution, and labelled with intracellular antibodies. Cells were then washed in Perm/Wash™ 1× and PBS. Live vs. dead cell discrimination was performed prior to antibody labeling by Zombie Fixable Viability dye (Biolegend). Ex vivo intracellular staining for IL-12 and TNFα was performed on isolated cells after stimulation for 6 hours with LPS (1 μg/ml, Sigma Aldrich) in the presence of Golgi stop (0.8 μl/ml, BD Biosciences). For IFNγ staining, cells were incubated for 5 hours with phorbol myristate acetate (PMA, 750 ng/mL, Sigma Aldrich) and ionomycin (50 μg/mL, Sigma-Aldrich) in the presence and Golgi stop (0.8 μl/ml). For ER-tracker and Mitotracker staining, cells were probed with 100 nM of ER tracker green or 200 nM of Mitotracker green (Invitrogen) and then stained for surface markers. For Mitochondrial membrane potential, cells were stained with JC-1 flow cytometry assay kit (Cayman chemicals) followed by surface markers staining. ROS were detected by DCFDA (10 μM) or Dihydroethidium (DHE, 10 μM). Data acquisition was performed in a CytoFLEX II (Beckman Coulter) or LSRII (BD Biosciences). All analysis was performed using FlowJo version 11 software.

[8] = test system: tumor-MDSC; settings: tumor-bearing Eif2ak3^KO-Lyz2 mice treated with SFRN vs untreated or Eif2ak3^Flox
Experimental: Oxygen consumption rate (OCR) through mitochondrial stress test and extracellular acidification rate (ECAR) by glycolysis stress profile were measured using a XF96 extracellular flux analyzer (Seahorse Bioscience). MDSC were plated onto CellTak pre-coated wells (1×10^5 cells/well in triplicate), and subjected to mitochondrial stress and glycolysis stress protocols using specific non-buffered XF base mediums. For OCR, cells were analyzed under basal conditions and in response to 2 μM oligomycin, 2 μM fluorocarbonyl-cyanide-phenylhydrazone (FCCP), and 0.5 μM rotenone. For ECAR, cells were plated in XF media lacking glucose and monitored under basal conditions and in response to 10 mM glucose, 10 μM oligomycin, and 100 mM 2-Deoxy-D-glucose (2-DG). Final values were obtained after protein normalization among the conditions.

[9] = test system: Ifnβ1 mRNA; assay: Quantitative PCR of Ifnβ1 mRNA in MDSC; type: cell-based; settings: mice treated with SFRN vs untreated PERK-null mice
Experimental: Total RNA was isolated from MDSC using TRIzol (Life Technologies). Reverse transcription was performed using Verso cDNA Synthesis Kit (Thermo Scientific). Quantitative PCR reactions were prepared by using Bio-Rad SYBR green master mix and performed on an Applied Biosystems thermocycler (7900 HT) using primers described in Key Resources Table

[10] = test system: LLC tumors; assay: s.c. LLC tumor model in mice; type: in vivo
[11] = test system: PERK; assay: Immunoblot of PERK and phospho-PERK in MDSC; type: cell-based, mice
From the text: (§3) Equal protein amounts of total and nuclear cell lysates were electrophoresed in 8 or 10% Tris-Glycine gels (Novex-Invitrogen), transferred to PVDF membranes by iBlot™ Gel Transfer Device (ThermoFisher), and blotted with the corresponding primary and secondary antibodies described in Key Resources Table. For nuclear fraction isolation, cells were lysed using NE-PER Nuclear and Cytoplasmic extraction kit (ThermoFisher). Membrane-bound immune complexes were detected by ChemiDoc™ Imaging System (Bio-Rad, #17001401).

[12] = test system: tumor-MDSC from Pan02-OVA-ZsGreen tumors; assay: Cross-presentation by tumor-MDSC from Pan02-OVA-ZsGreen tumors; type: cell-based; settings: TUDCA-treated mice bearing Pan02-OVA-ZsGreen tumors
Experimental: For antigen loading experiments, MDSC were sorted from LLC tumors and then pulsed with 1 μg/ml complete ovalbumin (OVA). After 16 hours, cells were washed twice and 2.5×10^4 MDSC co-cultured with 1×10^5 CFSE-labeled naïve CD8^+ T cells from spleens of OT-I mice (ratio 0.25:1). Positive controls included co-cultures of OT-I T cells with GM-CSF plus IL-4-derived BM-DCs loaded with 1 μg/ml complete OVA. For TME cross-priming assays, 1.25×10^4 MDSC from Pan02-Ova-ZsGreen tumors were co-cultured with 5×10^4 naïve CD8^+ T cells (1/4:1) from spleens of OT-I mice and labelled with Cell-trace violet. Positive control wells included OT-I T cells co-cultured with GM-CSF plus IL-4-derived BM-DCs loaded with 1 μg/ml OVA257-264 peptide. T cell proliferation was measured after 3 days of co-culture.

[13] = test system: Arginase I; assay: Immunoblot of Arginase I in tumor-MDSC; type: cell-based; settings: mice treated with TUDCA vs vehicle
From the text: as §3

[14] = test system: human BM-MDSC; assay: In vitro suppression assay with human BM-MDSC; type: cell-based
Experimental: as §2
Murine BM-MDSC (ratio 1:1/8) or tumor-MDSC (ratio 1:1/4) were co-cultured with negatively selected CD3^+ T cells in a 96 well plate bound α-CD3 and α-CD28 (1 μg/ml each, eBioscience) for 3 days. T cell proliferation was assessed with Carboxyfluorescein succinimidyl ester (CFSE) or Cell-trace violet (Invitrogen) dye dilution detected by flow cytometry. […] Results are expressed as percentage of proliferating T cells, determined by the dilution of fluorescence compared with non-stimulated T cells.

[15] = test system: IRE1α; assay: Immunoblot of IRE1α and phospho-IRE1α in MDSC; type: cell-based, mice
From the text: as §3

[16] = LLC, SFRN 25 mg/kg i.p., 3 days per week
[17] = mice treated with TUDCA vs controls
[18] = BM-MDSC, Thaps 200 nM, last 24 hours
[19] = LLC-bearing mice, Thaps 100 μg/kg i.p. vs vehicle

Cn1cc(-c2ccc3c(c2)CCN3C(=O)Cc2cccc(C(F)(F)F)c2)c2c(N)ncnc21 [GSK-2606414]
tumor growth ([1]; B16-bearing mice, GSK-2606414 25 mg/kg i.p. daily vs vehicle): Delayed tumor growth
tumor growth ([1]; B16, daily i.p. GSK2606414 25 mg/kg or AMG-44 12 mg/kg from day 7): delayed tumor growth
glucose levels in the serum [2]: failed to show alterations in glucose levels
immunoinhibitory activity of MDSC ([3]; MDSC from tumors of GSK-2606414 treated B16-bearing mice): lower immunoinhibitory activity of MDSC
hyperglycemia at high doses ([4]; 150 mg/kg, orally twice a day, previous studies): induced hyperglycemia
limitation for therapeutic use ([4]; Yu et al., 2015): induction of hyperglycemia as a result of pancreatic islet degeneration
frequency of IFNγ-producing CD8+ T cells in tumors ([5]; B16, GSK2606414 25 mg/kg or AMG-44 12 mg/kg, 17 days post-tumor injection): amplified the frequency of IFNγ-producing CD8^+ T cells in tumors

Oc1ccc(C=Cc2cc(O)cc(O)c2)cc1 [Resveratrol]
potential of Thaps-treated Eif2ak3^KO-Tek BM-MDSC to impair T cell proliferation [6]: partially restored the potential

C[S+]([O-])CCCCN=C=S (stereo not drawn) [SFRN, Sulforaphane]
ROS levels in tumor Eif2ak3^KO-Lyz2 MDSC [7]: reduced ROS levels
OCR of tumor-MDSC [8]: elevated OCR
Ifnβ1 mRNA in tumor-MDSC from Eif2ak3^KO-Lyz2 mice [9]: reduced Ifnβ1 mRNA levels
potential of Thaps-treated Eif2ak3^KO-Tek BM-MDSC to impair T cell proliferation [6]: partially restored the potential
anti-tumor effects found in Eif2ak3^KO-Lyz2 mice [10, 16]: disabled the anti-tumor effects
tumor progression in Eif2ak3^Flox mice [10, 16]: delaying tumor progression
ROS levels and immunoregulatory potential of control MDSC ([3]; LLC-bearing Eif2ak3^Flox mice treated with SFRN): without affecting controls
immunoregulatory potential of tumor Eif2ak3^KO-Lyz2 MDSC ([3]; LLC-bearing mice treated with SFRN, 1:1/4): restored the immunoregulatory potential

C[C@H](CCC(=O)NCCS(=O)(=O)O)[C@H]1CC[C@H]2[C@@H]3[C@@H](O)C[C@@H]4C[C@H](O)CC[C@]4(C)[C@H]3CC[C@]12C [TUDCA, Tauroursodeoxycholic acid]
expression of phospho-PERK in tumor-MDSC [11, 17]: lower expression of phospho-PERK
capacity of tumor-MDSC to prime OT-I T cell proliferation [12]: higher capacity to prime OT-I T cell proliferation
expression of SIINFEKL-bound H-2K^b in tumor-MDSC [12]: heightened expression
ability to block T cell proliferation ([6]; murine BM-MDSC developed after exposing BM-iMC to TES, TUDCA in culture): impaired the ability
tumor growth ([1]; established B16 tumors, TUDCA 250 mg/kg daily after day 6 vs vehicle): delayed tumor growth
levels of Arginase I in tumor-MDSC [13]: reduced levels of the inhibitory factor Arginase I
anti-tumor actions in immunodeficient Rag1^KO mice ([10]; LLC tumors, TUDCA, Rag1^KO vs wild type mice): not found
tumor growth ([10]; established LLC tumors, TUDCA 250 mg/kg daily after day 6 vs vehicle): delayed tumor growth
ability to block T cell proliferation ([14]; human BM-MDSC conditioned with hTES, TUDCA in culture): impaired the ability
ability to block T cell proliferation ([3]; LLC tumor-MDSC pre-treated ex vivo with TUDCA for 24 hours): impaired the ability
ability of tumor-MDSC to block T cell proliferation ([3]; tumor-MDSC (1:1/4) from LLC or B16 bearing mice treated with TUDCA vs vehicle): lower ability to block T cell proliferation
expansion of recently activated CD69+ CD44+ CD8+ T cells in tumors ([5]; B16-bearing mice treated with TUDCA): Higher expansion
EGSRNQDWL-H-2D^b-tetramer+ CD8+ T cells recognizing gp100 ([5]; B16-bearing mice, single treatment): promoted the spontaneous expansion
recently activated CD69+ CD44+ CD8+ T cells ([5]; B16-bearing mice, single treatment (anti-Gr1 experiment)): promoted the spontaneous expansion
expansion of recently activated CD69+ CD44+ CD8+ T cells in tumors ([5]; LLC-bearing mice treated with TUDCA): Higher expansion
expression of phospho-IRE1α in tumor-MDSC [15, 17]: lower expression of phospho-PERK and phospho-IRE 1α

C/C=C(/C)C(=O)O[C@H]1C(C)=C2[C@H]([C@@H]1OC(=O)CCCCCCC)[C@@](C)(OC(C)=O)C[C@H](OC(=O)CCC)[C@@]1(O)[C@H]2OC(=O)[C@@]1(C)O [Thaps, Thapsigargin]
total and phosphorylated PERK [11, 18]: upregulation of total and phosphorylated PERK
ability to block T cell proliferation ([6]; murine BM-MDSC, Thaps 200 nM, last 24 hours): enhanced ability to block T cell proliferation
expansion of splenic-MDSC [10, 19]: increased the expansion of splenic-MDSC
tumor progression [10, 19]: promoted tumor progression
ability to block T cell proliferation ([14]; human BM-MDSC, Thaps, last 24 hours): enhanced ability to block T cell proliferation
immunoregulatory potential of tumor-MDSC ([3]; tumor-MDSC from LLC-bearing mice treated with Thaps): elevated the immunoregulatory potential of tumor-MDSC
total and phosphorylated IRE1α [15, 18]: upregulation of total and phosphorylated PERK and IRE1α
